# Active and inactive are the calls of the source. The rule behind the calls is not given here.
# How the values were obtained:
# DU-145 = experiment: cells; settings: Homo sapiens, DU-145, 72 h
# [1] = target: T1, DNA topoisomerase 1 (Homo sapiens) (UniProt P11387); experiment: Inhibition of recombinant TOP1 (unknown origin) using 3'-[32P]-labeled 117 bp DNA oligonucleotide assessed as […] TOP1-mediated DNA cleavage incubated for 20 mins by PAGE analysis relative to 1 uM CPT
# T1 sequence (whole entry): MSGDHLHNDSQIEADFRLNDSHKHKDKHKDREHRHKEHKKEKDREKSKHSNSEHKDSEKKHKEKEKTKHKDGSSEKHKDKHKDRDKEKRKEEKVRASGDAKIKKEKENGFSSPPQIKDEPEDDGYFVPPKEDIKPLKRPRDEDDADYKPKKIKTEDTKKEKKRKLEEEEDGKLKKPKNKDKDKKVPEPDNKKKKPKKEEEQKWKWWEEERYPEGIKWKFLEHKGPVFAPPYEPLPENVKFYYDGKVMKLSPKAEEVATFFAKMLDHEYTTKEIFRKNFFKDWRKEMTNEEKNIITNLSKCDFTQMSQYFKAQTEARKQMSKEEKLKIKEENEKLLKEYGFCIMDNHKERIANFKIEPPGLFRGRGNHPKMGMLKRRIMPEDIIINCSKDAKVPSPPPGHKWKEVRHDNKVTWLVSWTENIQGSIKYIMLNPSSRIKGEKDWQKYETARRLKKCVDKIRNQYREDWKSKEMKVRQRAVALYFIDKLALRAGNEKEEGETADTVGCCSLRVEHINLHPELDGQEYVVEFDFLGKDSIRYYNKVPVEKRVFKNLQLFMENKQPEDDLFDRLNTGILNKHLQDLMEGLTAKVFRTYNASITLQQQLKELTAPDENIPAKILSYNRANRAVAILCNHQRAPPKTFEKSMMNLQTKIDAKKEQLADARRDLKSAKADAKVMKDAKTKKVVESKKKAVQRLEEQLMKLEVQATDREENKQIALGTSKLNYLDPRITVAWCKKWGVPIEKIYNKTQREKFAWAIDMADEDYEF
# MCF7 = experiment: cells; settings: Homo sapiens, MCF7, 72 h
# HCT-116 = experiment: cells; settings: Homo sapiens, HCT-116, 72 h
# A549 = experiment: cells; settings: Homo sapiens, A549, 72 h
# [2] = target: T1, DNA topoisomerase 1 (Homo sapiens); experiment: Inhibition of recombinant TOP1 (unknown origin) using 3'-[32P]-labeled 117 bp DNA oligonucleotide assessed as TOP1-mediated DNA cleavage by measuring induction and stabilization of cleavage sites 17, 35 and 79 incubated for 20 mins by PAGE analysis
# [3] = target: T1, DNA topoisomerase 1 (Homo sapiens); experiment: Inhibition of recombinant TOP1 (unknown origin) using 3'-[32P]-labeled 117 bp DNA oligonucleotide assessed as TOP1-mediated DNA cleavage by measuring induction and stabilization of cleavage sites 17, 35 and 79 at 1 uM incubated for 20 mins by PAGE analysis
# [4] = target: T1, DNA topoisomerase 1 (Homo sapiens); experiment: Inhibition of TOP1 in human HCT116 cells assessed as induction of cellular TOP1cc formation at 25 uM incubated for 1 hr by chemiluminescence based assay; format: cell-based
# [5] = target: T1, DNA topoisomerase 1 (Homo sapiens); experiment: Inhibition of TOP1 in human HCT116 cells assessed as induction of cellular TOP1cc formation incubated for 1 hr by chemiluminescence based assay; format: cell-based
# [6] = target: T1, DNA topoisomerase 1 (Homo sapiens); experiment: Inhibition of TOP1 in human HCT116 cells assessed as induction of DNA damage by measuring increase in gammaH2AX foci at 1 uM incubated for 3 hrs by DAPI staining based immunofluorescence microscopic method; format: cell-based
SMILES,GI50 (DU-145) [µM],inhibition [1] [%],GI50 (MCF7) [µM],GI50 (HCT-116) [µM],GI50 (A549) [µM],Activity [2],Activity [3],Activity [4],Activity [5],Activity [6]
COc1cc2c(=O)n(CCN(C)S(=O)(=O)N(C)C)c3c4cc5c(cc4ccc3c2cc1OC)OCO5,15,20 to 50,1.5,0.96,7.9,,,,,
COc1cc2c(=O)n(CCN(C)P3(=O)OCCO3)c3c4cc5c(cc4ccc3c2cc1OC)OCO5,,50 to 75,,,,Dose-dependent effect,,,,
COc1cc2c(=O)n(CCNS(=O)(=O)N(C)C)c3c4cc5c(cc4ccc3c2cc1OC)OCO5,45,20 to 50,21,30,35,,,,,
CC[C@@]1(O)C(=O)OCc2c1cc1n(c2=O)Cc2cc3ccccc3nc2-1,,,,,,,inactive,Active,Dose-dependent effect,Active
COc1cc2c(=O)n(CCN(C)P(=O)(OC)OC)c3c4cc5c(cc4ccc3c2cc1OC)OCO5,5.3,50 to 75,10,9.2,14,Dose-dependent effect,,,,
COc1cc2c(=O)n(CCNS(=O)(=O)N3CCCC3)c3c4cc5c(cc4ccc3c2cc1OC)OCO5,79,0 to 50,38,34,61,,,,,
COc1cc2c(=O)n(CCN(C)S(=O)(=O)N3CCOCC3)c3c4cc5c(cc4ccc3c2cc1OC)OCO5,48,20 to 50,64,40,35,,,,,
COc1cc2c(=O)n(C)c3c4cc5c(cc4ccc3c2cc1OC)OCO5,64,,31,74,39,,,,,
COc1cc2c(=O)n(CCNS(=O)(=O)C3CC3)c3c4cc5c(cc4ccc3c2cc1OC)OCO5,1.3,50 to 75,3,5.2,4.3,Dose-dependent effect,,,,
COc1cc2c(=O)n(CCN(C)S(=O)(=O)N3CCCC3)c3c4cc5c(cc4ccc3c2cc1OC)OCO5,3.1,20 to 50,3.8,2.5,5.3,,,,,
COc1cc2c(=O)n(CCNC(=O)C3CC3)c3c4cc5c(cc4ccc3c2cc1OC)OCO5,7.8,20 to 50,2.2,5.3,1.3,,,,,
COc1cc2c3c(n(CCCNCCO)c(=O)c2cc1OC)-c1cc2c(cc1C3=O)OCO2,,,,,,,Active,,,
COc1cc2c(=O)n(CCNS(=O)(=O)N3CCOCC3)c3c4cc5c(cc4ccc3c2cc1OC)OCO5,1.6,50 to 75,0.89,1.1,2.9,Dose-dependent effect,,,,
COc1cc2c(=O)n(CCN(C)S(=O)(=O)C(F)(F)F)c3c4cc5c(cc4ccc3c2cc1OC)OCO5,65,0 to 50,35,86,42,,,,,
COc1cc2c(=O)n(CCNP(=O)(OC)OC)c3c4cc5c(cc4ccc3c2cc1OC)OCO5,39,0 to 50,48,51,41,,,,,
COc1cc2c(=O)n(CCN(C)S(=O)(=O)C3CC3)c3c4cc5c(cc4ccc3c2cc1OC)OCO5,10,20 to 50,5.8,7.9,15,,,,,

# From ChEMBL document CHEMBL4364246, “Synthesis and biological evaluation of 5-aminoethyl benzophenanthridone derivatives as DNA topoisomerase IB inhibitors” (Eur J Med Chem, 2019)
